In patent publication US5679638A, “Method for treating a tumor with a chemotherapeutic agent” (Biopure Corporation, priority 1993, dated 1997):

Legend:
FSaIIC tumor cells = experiment: FSaIIC tumor excision / colony forming assay (tumor cell killing); type: in vivo, mouse; conditions: for FSaIIC cell killing by drug, dose dependence: drug alone, increasing dose; for Enhancement of tumor cell killing by UPHS at higher drug doses: higher doses of drug + UPHS vs drug alone
Protocol: The procedures and materials of Example I were employed, except as noted. In this Example, tumors were allowed to grow to approximately 100 mm^3 in volume, which took about one week after tumor cell implantation. At this time, 0.3 ml of UPHS was injected via the tail vein. Immediately afterward, PAM was administered by intraperitoneal injection. The animals were then allowed to breathe air or were placed in a circulating atmosphere of carbogen for 6 hours and then removed to air. The mice were sacrificed 24 hours after treatment to allow for full expression of drug cytotoxicity and repair of potentially lethal damage. The tumors were excised under sterile conditions and single cell suspensions were prepared for a colony forming assay. See Teicher, B. A. et al., "Approaches to Defining the Mechanism of Fluosol-DA 20%/Carbogen Enhancement of Melphalan Antitumor Activity", Cancer Res. 47:513-518 (1987); Teicher, B. A. et al., "Differential Enhancement of Melphalan Cytotoxicity in Tumor and Normal Tissue by Fluosol-DA and Oxygen Breathing", Int. J. Cancer 36:585-589 (1985); Teicher, B. A. et al., "Effects of Various Oxygenation Conditions on the Enhancement by Fluosol-DA of Melphalan Antitumor Activity", Cancer Res. 47:5036-5041 (1987); Teicher, B. A. and S. A. Holden, "A Survey of the Effect of Adding Fluosol-DA 20%/O2 to Treatment with Various Chemotherapeutic Agents", Cancer Treat. Rep. 71:173-177 (1987), Teicher, B. A. et al., "Effect of Various Oxygenation Conditions and Fluosol-DA on Cancer Chemotherapeutic Agents", Biomat., Art. Cells and Art. Organs 16:533-546 (1988). One week later, the plates were stained with crystal violet and colonies of more than 50 cells were counted.
The result for the tumor excision assays and bone marrow toxicity tests with PAM are plotted in FIG. 1 wherein the surviving fraction +SE of cells from the treated groups are compared to untreated controls.
The procedures and materials of Example II were employed except that CTX was administered instead of PAM.

[1] = system: bone marrow granulocyte-macrophage colony forming units (CFU-GM); experiment: Bone marrow toxicity, CFU-GM colony forming assay; type: in vivo, mouse; conditions: drug + UPHS vs drug alone; PAM across entire dosage range
Protocol: The procedures and materials of Example I were employed, except as noted. In this Example, tumors were allowed to grow to approximately 100 mm^3 in volume, which took about one week after tumor cell implantation. At this time, 0.3 ml of UPHS was injected via the tail vein. Immediately afterward, PAM was administered by intraperitoneal injection. The animals were then allowed to breathe air or were placed in a circulating atmosphere of carbogen for 6 hours and then removed to air. The mice were sacrificed 24 hours after treatment to allow for full expression of drug cytotoxicity and repair of potentially lethal damage. The tumors were excised under sterile conditions and single cell suspensions were prepared for a colony forming assay. […] One week later, the plates were stained with crystal violet and colonies of more than 50 cells were counted.
Bone marrow toxicity was determined as follows. […] Colonies of at least 50 cells were scored on an acculite colony counter (Fisher, Springfield, N.J.). The results from three experiments, in which each group was measured in triplicate, were averaged. […]

FSaIIC fibrosarcoma = FSaIIC fibrosarcoma tumor growth delay; type: in vivo, mouse (male C3H/FeJ mice); conditions: PAM 10 mg/kg + Fluosol-DA, carbogen 1 hour

Row | Compound | Increase in killing of FSaIIC cells by addition of UPHS (FSaIIC tumor cells; CTX 100 mg/kg + UPHS vs CTX alone) [fold] | Greater kill of FSaIIC tumor cells with combined treatment (FSaIIC tumor cells; CTX 500 mg/kg (highest dose) + UPHS vs CTX alone) | FSaIIC cell killing by drug, dose dependence (FSaIIC tumor cells) | Enhancement of tumor cell killing by UPHS at higher drug doses (FSaIIC tumor cells) | Increase in bone marrow CFU-GM killing / toxicity by addition of UPHS [1] | Increase in tumor cell killing by addition of UPHS (FSaIIC tumor cells; PAM 10 mg/kg + UPHS vs PAM alone) [fold] | Tumor growth delay, with Fluosol-DA and carbogen (FSaIIC fibrosarcoma)
1 | O=P1(N(CCCl)CCCl)NCCCO1 (stereo not shown) [CTX, Cyclophosphamide] | ~20 | about 9 fold | killed increasing numbers of FSaIIC cells with increasing doses | the differential between tumor cell kill by CTX alone and CTX plus UPHS decreased as the dose of CTX was increased | 2-3 fold | – | –
2 | N[C@@H](Cc1ccc(N(CCCl)CCCl)cc1)C(=O)O [PAM, Melphalan] | – | – | killed FSaIIC cells in a log-linear manner with increasing dose | the enhancement in tumor cell killing with the combination treatment disappeared | 3 fold | ~10 | about 9.5 days
